Assay results from the supplement of paper PMC10307832.

Tests used:
Assay in all cases: relative viability (nuclei count vs DMSO), 5 days (fraction); higher = more cells survive
RO-3306 + Olaparib = compound: C1=CC2=C(C=CC(=C2)C=C3C(=O)NC(=NCC4=CC=CS4)S3)N=C1 [RO-3306] + O=C(c1cc(Cc2n[nH]c(=O)c3ccccc23)ccc1F)N1CCN(C(=O)C2CC2)CC1 [Olaparib] (partner 8 µM)
Outline: (§1)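 Lung cancer cell lines in 1536-well plates were dosed by pin tool the day after seeding, either with one drug alone or with a fixed anchor-drug dose plus five library-drug doses (not always all listed) in √10 steps. After 5 days, cells were fixed and their nuclei stained in one step (final 0.05% Triton X-100, 1% formaldehyde, 1 ug/ml Hoechst), then counted on 4× images. Relative viability is the nuclei count in treated wells divided by that in vehicle wells. Values are medians of duplicate plates.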

RO-3306 + Trametinib = compound: C1=CC2=C(C=CC(=C2)C=C3C(=O)NC(=NCC4=CC=CS4)S3)N=C1 [RO-3306] + CC(=O)Nc1cccc(-n2c(=O)n(C3CC3)c(=O)c3c(Nc4ccc(I)cc4F)n(C)c(=O)c(C)c32)c1 [Trametinib] (partner 0.02 µM)
Outline: as §1

[1] = compound: O=S(=O)(c1ccccc1)N(CC(F)(F)F)c1ccc(C(O)(C(F)(F)F)C(F)(F)F)cc1 + CS(=O)(=O)CCNCc1ccc(-c2ccc3ncnc(Nc4ccc(OCc5cccc(F)c5)c(Cl)c4)c3c2)o1 [Lapatinib] (partner 2 µM)
Outline: as §1

[2] = compound: O=S(=O)(c1ccccc1)N(CC(F)(F)F)c1ccc(C(O)(C(F)(F)F)C(F)(F)F)cc1 + Nc1ncn([C@H]2C[C@H](O)[C@@H](CO)O2)c(=O)n1 [Decitabine] (partner 2 µM)
Outline: as §1

Row | Cell Line | relative viability (RO-3306 + Olaparib; first compound 0.01 µM) | relative viability (RO-3306 + Olaparib; first compound 0.1 µM) | relative viability (RO-3306 + Olaparib; first compound 0.3162 µM) | relative viability (RO-3306 + Olaparib; first compound 1 µM) | relative viability (RO-3306 + Trametinib; first compound 0.01 µM) | relative viability (RO-3306 + Trametinib; first compound 0.1 µM) | relative viability (RO-3306 + Trametinib; first compound 0.3162 µM) | relative viability (RO-3306 + Trametinib; first compound 1 µM) | relative viability ([1]; first compound 0.8 µM) | relative viability ([1]; first compound 2.53 µM) | relative viability ([1]; first compound 8 µM) | relative viability ([2]; first compound 0.8 µM) | relative viability ([2]; first compound 2.53 µM) | relative viability ([2]; first compound 8 µM) | relative viability (RO-3306 + Olaparib; first compound 0.03162 µM) | relative viability (RO-3306 + Trametinib; first compound 0.03162 µM)
1 | NCI-H23 | 0.333 | 0.25 | 0.307 | 0.268 | 0.344 | 0.352 | 0.388 | 0.375 | 1.24 | 1.24 | 1.14 | 0.292 | 0.28 | 0.352 | – | –
2 | NCI-H322M | 0.817 | 0.773 | 0.785 | 0.696 | 0.561 | 0.515 | 0.54 | 0.531 | 0.684 | 0.602 | 0.655 | 0.685 | 0.721 | 0.663 | 0.743 | 0.445
3 | NCI-H358 | 0.779 | 0.583 | 0.596 | 0.468 | 0.131 | 0.127 | 0.135 | 0.12 | 0.434 | 0.383 | 0.417 | – | 0.19 | 0.129 | 0.485 | 0.131
4 | NCI-H460 | 0.412 | 0.464 | 0.442 | 0.466 | 0.162 | 0.139 | 0.223 | 0.128 | – | 0.834 | 0.779 | 0.681 | 0.462 | 0.349 | 0.363 | 0.115
5 | NCI-H520 | 0.359 | 0.315 | 0.344 | 0.351 | 0.896 | 0.569 | 0.714 | 0.756 | 1.07 | 0.84 | 1.01 | 0.457 | 0.478 | 0.493 | 0.244 | 0.629
6 | NCI-H596 | 0.675 | 0.616 | 0.672 | 0.569 | 0.798 | 0.722 | 0.793 | 0.58 | 0.999 | 0.828 | 0.998 | 1.04 | 0.899 | 1.05 | 0.669 | 0.773
7 | NCI-H647 | 0.86 | 0.487 | 0.686 | 0.623 | 0.538 | 0.457 | 0.486 | 0.533 | 1.52 | 1.17 | 1.2 | 0.502 | 0.437 | 0.353 | 0.212 | 0.38
8 | NCI-H650 | 0.316 | 0.37 | 0.382 | 0.361 | 0.981 | 0.921 | 1.1 | 0.941 | 1.24 | 0.804 | 1.12 | 0.339 | 0.312 | 0.288 | 0.373 | 0.939
9 | NCI-H661 | 0.751 | 0.741 | 0.755 | 0.818 | 0.691 | 0.584 | 0.586 | 0.567 | 0.606 | 0.466 | 0.465 | 0.612 | 0.569 | 0.498 | 0.754 | 0.503
10 | NCI-H727 | 0.666 | 0.844 | 0.724 | 0.621 | 0.39 | 0.355 | 0.352 | 0.409 | 0.844 | 0.646 | 0.738 | 0.922 | 0.963 | 0.913 | 0.722 | 0.388
11 | NCI-H838 | 0.894 | 0.768 | 0.808 | 0.869 | 0.596 | 0.54 | 0.557 | 0.45 | 1.23 | 0.947 | 1.06 | 0.474 | 0.46 | 0.482 | 0.562 | 0.487
12 | NCI-H1355 | 0.682 | 0.738 | 0.8 | 0.786 | 0.472 | 0.404 | 0.448 | 0.376 | 1.04 | 0.961 | 0.926 | 0.354 | 0.382 | 0.342 | 0.659 | 0.324
13 | NCI-H1395 | 0.503 | 0.491 | 0.425 | 0.408 | 1.24 | 0.886 | 1.1 | 0.916 | 1.1 | 0.993 | 1.13 | 0.712 | 0.741 | 0.815 | 0.488 | 0.983
14 | NCI-H1437 | 0.628 | 0.614 | 0.588 | 0.619 | 0.539 | 0.54 | 0.543 | 0.527 | 0.861 | 0.651 | 0.622 | 0.609 | 0.549 | 0.568 | 0.564 | 0.409
15 | NCI-H1650 | 0.933 | 0.809 | 0.784 | 0.656 | 0.6 | 0.514 | 0.565 | 0.447 | 0.871 | 0.735 | 0.723 | 0.463 | 0.454 | 0.465 | 0.718 | 0.505
16 | NCI-H1651 | 0.177 | 0.181 | 0.174 | 0.177 | 0.805 | 0.828 | 0.826 | 0.8 | 0.9 | 0.821 | 0.847 | 0.793 | 0.668 | 0.517 | 0.168 | 0.803
17 | NCI-H1666 | 0.749 | 0.693 | 0.685 | 0.729 | 0.792 | 0.835 | 0.765 | 0.783 | 0.725 | 0.625 | 0.408 | 0.697 | 0.661 | 0.684 | 0.749 | 0.665
18 | NCI-H1734 | 0.703 | 0.632 | 0.622 | 0.551 | 0.757 | 0.61 | 0.685 | 0.628 | 1.24 | 1.13 | 0.934 | 0.524 | 0.477 | 0.477 | 0.515 | 0.607
19 | NCI-H1755 | 0.973 | 0.867 | 0.839 | 0.953 | 0.859 | 0.791 | 0.803 | 0.771 | 1.15 | 0.797 | 1 | 0.781 | 0.765 | 0.829 | 0.902 | 0.768
20 | NCI-H1792 | 0.544 | 0.484 | 0.51 | 0.436 | 0.508 | 0.372 | 0.585 | 0.413 | 0.932 | 0.783 | 0.665 | 0.562 | 0.395 | 0.562 | – | –
